Reference: patent US10426782B2, “Pharmaceutical formulations of a pan-RAF kinase inhibitor and processes for their preparation” (Millennium Pharmaceuticals, Inc., priority 2014, dated 2019)

Assays:
Assay type in all cases: physicochemical
[1] = Thermal gravimetric analysis (TGA); conditions: elevated temperatures below 200° C.
Method: A suitable hot melt extruder (e.g. twin screw, Leistritz Nano-16 mm or Micro-18 mm) is set up with the appropriate supporting equipment, including a cooling conveyor (e.g., Domer model 220M060600D0169 or Nara TBC-309-DC) and feeder with auger (e.g., K-Tron Gravimeteric Feeder e.g., with dual flight 20 mm auger). Example processing parameters are as follows: feed rate: 2.0 kg/hr; screw speed: 250 rpm; and barrel temperature: 170, 140, 90, 50° C. or 1.0 kg/hr; screw speed: 275 rpm; and barrel temperature: 175, 140, 90, 50° C.

Solubility of Compound 1 = assay: Solubility of Compound 1
log p of Compound 1 = assay: log p of Compound 1

thermal stability by TGA [1]: relatively stable
solubility (Solubility of Compound 1): < 1000 µg/mL
logP (log p of Compound 1): 3.63
Compound: C[C@@H](NC(=O)c1ncnc(N)c1Cl)c1ncc(C(=O)Nc2cc(C(F)(F)F)c(Cl)cn2)s1 [Compound 1, (R)-2-(1-(6-amino-5-chloropyrimidine-4-carboxamido)ethyl)-N-(5-chloro-4-(trifluoromethyl)pyridin-2-yl)thiazole-5-carboxamide]
